Results as given in patent publication US9492368B2, “External preparation for skin” (HAYASHIBARA CO., LTD., priority 2011, dated 2016).
Marks after values point to notes of the source that are not given here.

Columns and labels:
[1] = Solubility of glucosyladenosines in water (maximum dissolved concentration, HPLC); format: physicochemical
Procedure: As a basic property, the solubilities in water of the glucosyladenosines of the present invention were compared with that of adenosine. The 5′-glucosyladenosine prepared in Experiment 1-2 and the 3′-glucosyladenosine prepared in Experiment 2 were determined for solubility in water, and they were compared with that of adenosine. One hundred milligrams of 5′-glucosyladenosine or 3′-glucosyladenosine (these compounds may be collectively called glucosyladenosines, hereinafter) was dissolved in 500 μl of pure water at an ambient temperature (25° C.). While, five milligrams of adenosine was dissolved in 500 μl of pure water at an ambient temperature (25° C.). […] The filtrate was fed to HPLC under the following conditions, followed by determining the respective contents of glucosyladenosines and adenosine based on the peak areas appeared on a chromatogram by an ultraviolet detector, and calculating their concentrations as maximum dissolved concentrations at an ambient temperature (25° C.). The same samples were allowed to stand at a 4° C. cold room for one month and centrifuged, followed by quantifying the contents of glucosyladenosines and adenosine in the resulting supernatants similarly as above to determine their maximum dissolved concentrations at 4° C.
<Conditions for HPLC Analysis>
Apparatus: SHIMADZU UV-VIS DETECTOR SPD-10AV (a detector), LC-10AT (a pump), C-R8A (a recorder), and SIL-20AC (an autosampler);
Mobile phase: (0.1 v/v % aqueous acetic acid solution)/(methanol)=96/4 (v/v),
Detection wavelength: 260 nm,
Injection volume: 20 μl, and
Column temperature: 40° C.

[2] = test system: three-dimensional skin model (EPI-200 Kit); assay: Residual property in three-dimensional skin model (composition of permeated solution after 24 hours); details: 0.1% test sample in 30% ethanol
Procedure: “EPI Assay Medium”, a product name of EPI100 assay medium commercialized by Kurabo Industries Ltd., Okayama, Japan, was added to “12-WELL MULTI-MICROPLATE”, a product name of 12-well plate commercialized by Becton, Dickinson and Company, NJ, USA, in a volume of 0.33 ml/well; and “EPI-200 Kit”, a product name of a three-dimensional skin model cup, commercialized by Kanebo Cosmetics Inc., Tokyo, Japan, was transferred to each well. […] 5′-Glucosyladenosine prepared by the method in Experiment 1-2,3′-glucosyladenosine prepared by the method in Experiment 2, or adenosine was dissolved in 30% ethanol to give a final concentration of 0.1%, and 0.1 ml of each of the resulting solutions was added to each of the skin model cup. After incubating at 37° C. for 24 hours in a 5% CO2 condition, sample solutions (media in wells) were collected, subjected to ultrafiltration with “[sequence] 0.5 BIOMAX-5 MEMBRANE”, a product name of membrane commercialized by Nihon Millipore K.K., Tokyo, Japan, and diluted with the mobile phase. The diluent was subjected to HPLC under the following conditions and determined for the contents of 5′- and 3′-glucosyladenosines with an alternatively prepared standard curve.
Apparatus: an HPLC Pump, MODEL 510; a pump controller, MODEL 680; an autoinjector, MODEL 712; a detector, MODEL 2487; a data processing (quantity calculation), EMPOWER 2 SOFTWARRE, commercialized by Nihon Millipore K.K., Tokyo, Japan;
Column: “YMC-PACK ODS AQ-303”, a product name of an ODS column, ø4.6 mm×250 mm, commercialized by YMC Co., Ltd., Kyoto, Japan;
Mobile phase: {20 mM Acetic acid-ammonium acetate buffer (pH 3.5)}/(methanol)=92/8 (v/v);
Detection wavelength: 260 nm;
Injection volume: 10 μl; and

[3] = test system: β-glucocerebrosidase (GCase); assay: Real-time PCR gene expression in NHEK cells: β-glucocerebrosidase; format: cell-based, human; details: 1 μM, seven days, relative to control = 1.00
Procedure: (§1) Since glucosyladenosines were confirmed in Experiment 5 to have an action of enhancing the differentiation of keratinocytes effective for skin improvement, a test for examining the change of the expression level of a molecular marker gene of keratinocytes, as an index, was performed as follows using a real-time PCR analysis method to examine the above action in more detail. The expression level of a ceramide-synthesis-related gene was also studied to examine the influence of glucosyladenosines on ceramide synthesis that had been known to have an important role in moisturizing the skin and barrier function of the skin and deemed to be effective for skin improvement. As genes for analysis, profilaggrin (PFG: a later differentiation marker) and involucrin (INV: an early differentiation marker) as differentiation markers of keratinocytes and β-glucocerebrosidase (GCase) and sphingomyelinase (SMase) as ceramide-synthesis-related enzymes were selected, and a gene for cyclophilin B (CypB) as an internal standard upon practicing PCR reaction was used (see FIG. 7). NHEK cells were inoculated to 6-well plate coated with collagen in an amount of 8×10^4 cells/1.5 ml/well, cultured with EpiLife medium, and cultured at 37° C. for two days under a 5 v/v % CO2 condition. Thereafter, the culture medium was removed, and the resulting cells were added with a fresh EpiLife medium containing 5′-glucosyladenosine, 3′-glucosyladenosine, or adenosine in a volume of 1.5 ml/well (giving a final concentration of 1 μM of any one of glucosyladenosines and adenosine), and cultured for seven days while replacing the medium with a fresh one containing any one of glucosyladenosines and adenosine in a volume of 1.5 ml/well every other day. After completion of the culture, each well was washed twice with PBS(K−), followed by adding 0.2 ml/well of 0.025% by mass of trypsin/EDTA solution to the resulting cells and allowing the cells to stand at an ambient temperature for five minutes to detach them from the plates. […]

profilaggrin (PFG) = assay: Real-time PCR gene expression in NHEK cells: profilaggrin; format: cell-based, human; details: 1 μM, seven days, relative to control = 1.00
Procedure: as §1

| Structure (SMILES) | Maximum dissolved concentration ([1]; 4° C., one month) | Maximum dissolved concentration ([1]; 25° C., one day) | Composition of permeated solution: 3′-glucosyladenosine [2] | Concentration of 3′-glucosyladenosine in permeated solution [2] | Gene expression level GCase [3] | Gene expression level PFG (profilaggrin (PFG)) | Composition of permeated solution: 5′-glucosyladenosine [2] | Concentration of 5′-glucosyladenosine in permeated solution [2] |
| --- | --- | --- | --- | --- | --- | --- | --- | --- |
| Nc1ncnc2c1ncn2[C@@H]1O[C@H](CO)[C@@H](O[C@H]2O[C@H](CO)[C@@H](O)[C@H](O)[C@H]2O)[C@H]1O [3′-Glucosyladenosine, α-D-glucopyranosyl-(1→3′)-adenosine] | 2 w/v % | 2 w/v % | 27% | 25 µM | 2.08* | 2.03* |  |  |
| Nc1ncnc2c1ncn2[C@@H]1O[C@H](CO)[C@@H](O)[C@H]1O [Adenosine, reference compound] | 0.4 w/v % | 0.8 w/v % |  |  | 1.37 | 1.41 |  |  |
| Nc1ncnc2c1ncn2[C@@H]1O[C@H](CO[C@H]2O[C@H](CO)[C@@H](O)[C@H](O)[C@H]2O)[C@@H](O)[C@H]1O [5′-Glucosyladenosine, α-D-glucopyranosyl-(1→5′)-adenosine] | > 15.7 w/v % | > 16.1 w/v % |  |  | 2.68** | 2.54** | 65% | 60 µM |
